Experiments:
M4 muscarinic receptor = target: T1, M4 muscarinic receptor (Homo sapiens, UniProt P08173); assay: Functional mobilization of intracellular calcium (FLIPR), M4-CHO cells; format: cell-based; conditions: for Emax: 100% efficacy is the maximum response obtained using Carbachol as a control; for M4 Activity: M4-CHO cells, FLIPR calcium mobilization
T1 construct: expressed in transfected cells; host or cells: CHO (M4-CHO)
T1 sequence (P08173 1-479): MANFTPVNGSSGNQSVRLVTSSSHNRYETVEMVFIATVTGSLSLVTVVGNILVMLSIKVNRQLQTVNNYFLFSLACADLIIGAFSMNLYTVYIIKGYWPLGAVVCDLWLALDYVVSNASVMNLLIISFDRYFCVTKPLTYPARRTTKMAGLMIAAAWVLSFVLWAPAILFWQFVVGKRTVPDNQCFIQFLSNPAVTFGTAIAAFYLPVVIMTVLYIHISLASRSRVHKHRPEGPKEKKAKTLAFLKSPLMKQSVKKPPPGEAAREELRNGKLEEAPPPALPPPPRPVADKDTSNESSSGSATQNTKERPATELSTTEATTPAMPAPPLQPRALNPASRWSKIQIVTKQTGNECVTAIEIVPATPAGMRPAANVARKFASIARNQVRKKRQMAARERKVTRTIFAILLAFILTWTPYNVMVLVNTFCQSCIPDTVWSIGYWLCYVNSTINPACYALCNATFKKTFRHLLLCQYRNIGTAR
Procedure, shortened: (§1)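 CHO cells expressing M1 or M4, loaded with Fluo-3 AM or Calcium 3 dye with 1 mM probenecid, 0.5% DMSO final. Agonist mode: compound added directly; antagonist mode: 15 min pre-incubation (or co-application) before carbachol at EC80. Fluorescence recorded 60 s on FLIPR.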

M1 muscarinic receptor = target: T2, M1 muscarinic receptor (Homo sapiens, UniProt P11229); assay: Functional mobilization of intracellular calcium (FLIPR), M1-CHO cells; format: cell-based; conditions: for Emax: 100% efficacy is the maximum response obtained using Carbachol as a control; for M1 Activity: M1-CHO cells, FLIPR calcium mobilization
T2 construct: expressed in transfected cells; host or cells: CHO (M1-CHO)
T2 sequence (P11229 1-460): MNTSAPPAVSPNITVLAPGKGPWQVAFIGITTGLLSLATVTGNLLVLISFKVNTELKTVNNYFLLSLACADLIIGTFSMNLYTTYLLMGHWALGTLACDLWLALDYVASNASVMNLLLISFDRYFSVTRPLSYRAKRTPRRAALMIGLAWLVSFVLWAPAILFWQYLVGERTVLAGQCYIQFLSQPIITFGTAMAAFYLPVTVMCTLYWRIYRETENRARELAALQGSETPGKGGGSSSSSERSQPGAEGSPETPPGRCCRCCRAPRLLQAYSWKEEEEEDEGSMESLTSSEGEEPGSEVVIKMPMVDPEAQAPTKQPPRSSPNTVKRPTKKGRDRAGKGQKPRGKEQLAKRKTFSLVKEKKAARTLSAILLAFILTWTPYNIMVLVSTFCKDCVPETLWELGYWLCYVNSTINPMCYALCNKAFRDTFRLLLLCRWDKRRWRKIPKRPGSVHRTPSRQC
Procedure, shortened: as §1

Structure (SMILES) | Emax (M4 muscarinic receptor) [%] | M4 Activity (M4 muscarinic receptor) | Emax (M1 muscarinic receptor) [%] | M1 Activity (M1 muscarinic receptor)
CCOC(=O)N1C2CCC1CC(N1CCC3(CC1)CN(C(=O)c1cc(C)oc1C)Cc1ccccc13)C2 (centres unmarked) [compound 149] | 25 to 100 | +++ (activity was measured to be less than 1.0 μM) | < 25 | + (activity was measured to be greater than 5.0 μM)
COc1ccccc1CN1CCC2(CC1)CN(C(C)=O)Cc1ccccc12 [compound 150] | < 25 | + (activity was measured to be greater than 5.0 μM) | < 25 | + (activity was measured to be greater than 5.0 μM)
CCOC(=O)N1CCC(N2CCC3(CC2)CN(C(=O)c2ccccn2)Cc2ccccc23)CC1 [compound 151] | 25 to 100 | +++ (activity was measured to be less than 1.0 μM) | 25 to 100 | +++ (activity was measured to be less than 1.0 μM)
CC(=O)N1Cc2ccccc2C2(CCN(Cc3ccccc3Cl)CC2)C1 [compound 152] | 25 to 100 | ++ (activity was measured to be from 1.0 μM to 5.0 μM) | < 25 | + (activity was measured to be greater than 5.0 μM)
CC(=O)N1Cc2ccccc2C2(CCN(C3CCC(=O)CC3)CC2)C1 [compound 153] | 25 to 100 | ++ (activity was measured to be from 1.0 μM to 5.0 μM) | 25 to 100 | + (activity was measured to be greater than 5.0 μM)
CC(C)OC(=O)N1C2CCC1CC(N1CCC3(CC1)CN(S(C)(=O)=O)Cc1ccccc13)C2 (centres unmarked) [compound 154] | 25 to 100 | +++ (activity was measured to be less than 1.0 μM) | 25 to 100 | +++ (activity was measured to be less than 1.0 μM)
CCOC(=O)N1CCC(CN2CCC3(CC2)CN(S(=O)(=O)c2c(C)noc2C)Cc2ccccc23)CC1 [compound 155] | 25 to 100 | +++ (activity was measured to be less than 1.0 μM) | 25 to 100 | +++ (activity was measured to be less than 1.0 μM)
C#CCOC(=O)N1C2CCC1CC(N1CCC3(CC1)CN(C(C)=O)Cc1ccccc13)C2 (centres unmarked) [compound 156] | 25 to 100 | +++ (activity was measured to be less than 1.0 μM) | 25 to 100 | +++ (activity was measured to be less than 1.0 μM)
COCCOC(=O)N1Cc2ccccc2C2(CCN(C3CC4CCC(C3)N4C(=O)OC(C)C)CC2)C1 (centres unmarked) [compound 157] | 25 to 100 | +++ (activity was measured to be less than 1.0 μM) | 25 to 100 | +++ (activity was measured to be less than 1.0 μM)
COCCOC(=O)N1CCC(N2CCC3(CC2)CN(C(C)=O)Cc2ccccc23)CC1 [compound 158] | 25 to 100 | +++ (activity was measured to be less than 1.0 μM) | 25 to 100 | +++ (activity was measured to be less than 1.0 μM)
CCOC(=O)N1C2CCC1CC(N1CCC3(CC1)CN(c1cccc(F)c1)Cc1ccccc13)C2 (centres unmarked) [compound 159] | 25 to 100 | +++ (activity was measured to be less than 1.0 μM) | > 100 | +++ (activity was measured to be less than 1.0 μM)
CC(=O)N1Cc2ccccc2C2(CCN(CC3CCN(C(=O)OC(C)C)CC3)CC2)C1 [compound 161] | < 25 | +++ (activity was measured to be less than 1.0 μM) | 25 to 100 | ++ (activity was measured to be from 1.0 μM to 5.0 μM)
CCOC(=O)N1C2CCC1CC(N1CCC3(CC1)CN(C(=O)CC(C)(C)C)Cc1ccccc13)C2 (centres unmarked) [compound 162] | 25 to 100 | +++ (activity was measured to be less than 1.0 μM) | 25 to 100 | +++ (activity was measured to be less than 1.0 μM)
CCOC(=O)N1CCC(N2CCC3(CC2)CN(C(=O)NC2CCCCC2)Cc2ccccc23)CC1 [compound 163] | 25 to 100 | +++ (activity was measured to be less than 1.0 μM) | 25 to 100 | +++ (activity was measured to be less than 1.0 μM)
CCOC(=O)N1CCC(N2CCC3(CC2)CN(C(=O)OC2CCCC2)Cc2ccccc23)CC1 [compound 164] | 25 to 100 | +++ (activity was measured to be less than 1.0 μM) | 25 to 100 | +++ (activity was measured to be less than 1.0 μM)
CCOC(=O)N1CCC(N2CCC3(CC2)CN(C(=O)OC(C)C)Cc2ccccc23)CC1 [compound 166] | 25 to 100 | +++ (activity was measured to be less than 1.0 μM) | 25 to 100 | +++ (activity was measured to be less than 1.0 μM)
CCOC(=O)N1CCC(N2CCC3(CC2)CN(Cc2ccccc2)Cc2ccccc23)CC1 [compound 167] | < 25 | +++ (activity was measured to be less than 1.0 μM) | 25 to 100 | ++ (activity was measured to be from 1.0 μM to 5.0 μM)
CCNC(=O)N1Cc2ccccc2C2(CCN(C3CCN(C(=O)OCC)CC3)CC2)C1 [compound 168] | 25 to 100 | +++ (activity was measured to be less than 1.0 μM) | 25 to 100 | +++ (activity was measured to be less than 1.0 μM)
CC(=O)N1Cc2ccccc2C2(CCN(C3C4CC5CC(C4)CC3C5)CC2)C1 (centres unmarked) [compound 170] | 25 to 100 | +++ (activity was measured to be less than 1.0 μM) | 25 to 100 | +++ (activity was measured to be less than 1.0 μM)
CCOC(=O)N1CCC(CN2CCC3(CC2)CN(C(=O)Nc2c(C)noc2C)Cc2ccccc23)CC1 [compound 171] | 25 to 100 | +++ (activity was measured to be less than 1.0 μM) | 25 to 100 | +++ (activity was measured to be less than 1.0 μM)
CCOC(=O)N1CCC(N2CCC3(CC2)CN(C2CCCCCC2)Cc2ccccc23)CC1 [compound 172, Ethyl 4-(2-cycloheptyl-2,3-dihydro-1H-spiro[isoquinoline-4,4-piperidine]-1′-yl)piperidine-1-carboxylate] | 25 to 100 |  | 25 to 100 | 
CCOC(=O)N1CCC(N2CCC3(CC2)CN(S(=O)(=O)N(C)C)Cc2ccccc23)CC1 [compound 176] | 25 to 100 | +++ (activity was measured to be less than 1.0 μM) | 25 to 100 | +++ (activity was measured to be less than 1.0 μM)
CC(=O)N1Cc2ccccc2C2(CCN(C3CCN(C(=O)OC(C)(C)C)CC3)CC2)C1 [compound 177] | < 25 | + (activity was measured to be greater than 5.0 μM) | 25 to 100 | +++ (activity was measured to be less than 1.0 μM)
CCOC(=O)N1CCC(N2CCC3(CC2)CN(C(=O)C2(C)CCCCC2)Cc2ccccc23)CC1 [compound 178] | < 25 | + (activity was measured to be greater than 5.0 μM) | 25 to 100 | +++ (activity was measured to be less than 1.0 μM)
CCOC(=O)N1C2CCC1CC(N1CCC3(CC1)CN(C(=O)c1snnc1C)Cc1ccccc13)C2 (centres unmarked) [compound 179] | 25 to 100 | +++ (activity was measured to be less than 1.0 μM) | 25 to 100 | +++ (activity was measured to be less than 1.0 μM)

From patent US7863449B2, “Modulators of muscarinic receptors” (Vertex Pharmaceuticals Incorporated, priority 2004, dated 2011)
